Source: patent US10369185B2, “Methods and compositions for enhancement of ability to concentrate” (KYOWA HAKKO BIO CO., LTD., priority 2014, dated 2019)
Entries after “also recorded” stand apart in the source; their conditions may differ. Peptide text beside a SMILES is read from it.

Tests used:
Type in all cases: in vivo, human
[1] = test system: male runners; experiment: Serial subtraction test (modified Serial Sevens Test); conditions: between trials
Procedure: (§1) The testing protocol is depicted in FIG. 1. Data collection occurred on four separate occasions. Each session required participants to perform a 60-min run at 75% of their previously measured VO2max. Following this run, all participants performed a run at 90% of their VO2max until volitional exhaustion. All participants performed their first trial (DHY) without any rehydration. During this session the total weight lost during the trial was determined. The fluid loss that occurred during this session was then used to determine the participant's swear rate (L·hr^−1). To continue in the study, participant's sweat rate was or exceeded 1.3 L·hr^−1. During the next three trails participants were provided 250 ml of fluid every 15 minutes in equal amounts. During one of the trials participants consumed only a flavored sports drink (ELECT only), while during the other trials participants consumed the alanine-glutamine supplement (Sustamine™) mixed in the same flavored sports drink at either a low (LD: 300 mg per 500 ml) or high (HD: 1 g per 500 ml) dose.
A modified version of the original Serial Sevens Test was utilized to analyze cognitive function. […] The number of correct answers and the average time per correct answer was recorded.

[2] = test system: male runners; experiment: Run at 90% VO2max until volitional exhaustion; conditions: LD and HD compared to DHY
Procedure: as §1

[3] = test system: male runners; experiment: Lower body reaction, 20-second Quick Board test; conditions: for QuickBoard Hit Δ, group mean: Post-Pre; for changes in lower body reaction (Quick Board): LD and HD, no significant differences between groups
Procedure: The testing protocol is depicted in FIG. 1. Data collection occurred on four separate occasions. Each session required participants to perform a 60-min run at 75% of their previously measured VO2max. Following this run, all participants performed a run at 90% of their VO2max until volitional exhaustion. All participants performed their first trial (DHY) without any rehydration. During this session the total weight lost during the trial was determined. The fluid loss that occurred during this session was then used to determine the participant's swear rate (L·hr^−1). To continue in the study, participant's sweat rate was or exceeded 1.3 L·hr^−1. During the next three trails participants were provided 250 ml of fluid every 15 minutes in equal amounts. During one of the trials participants consumed only a flavored sports drink (ELECT only), while during the other trials participants consumed the alanine-glutamine supplement (Sustamine™) mixed in the same flavored sports drink at either a low (LD: 300 mg per 500 ml) or high (HD: 1 g per 500 ml) dose. A Lower body reaction time was assessed by a 20-second reaction test on the Quick Board™ (The Quick Board, LLC, Memphis, Tenn.) reaction timer (QB). Participants stood on a board of five circles, in a 2×1×2 pattern. The participant straddled the middle circle and reacted to a visual stimulus located on a display box that depicted one of five potential lights that corresponded with the circles on the board. Upon activation of the light, the participant attempted to move the foot closest to the circle that corresponded to the visual stimulus. Upon a successful connection the next stimulus appeared. The total number of successful attempts for the 20-second test and the average time between the activation of the light and the response to the corresponding circle were recorded. Additionally, to make inferences on true effects of the different trials on reaction performance, an analysis based on the magnitude of differences, calculated from 90% confidence intervals, as previously described by Batterham and Hopkins (2005), was used in this study. Differences in Post-Pre performance (Δresponse) between trials were analyzed via a published spreadsheet (Hopkins 2007), with the smallest non-trivial change set at 20% of the grand standard deviation (Batterham and Hopkins 2005). All data are expressed as a mean effect±SD, with percent chances of a beneficial, trivial or negative outcome. Qualitative inferences, based on quantitative chances were assessed as: <1% almost certainly not, 1-5% very unlikely, 5-25% unlikely, 25-75% possibly, 75-95% likely, 95-99% very likely and >99% almost certainly (Hopkins 2002).

SMILES: C[C@H](N)C(=O)N[C@@H](CCC(N)=O)C(=O)O [L-Alanyl-L-Glutamine] (H-Ala-Gln-OH)
- serial subtraction tests and time per successful answer [1]: No significant differences
- run times at 90% VO2max (time to exhaustion) [2]: significantly longer at LD and HD compared to DHY; also recorded: improved time to exhaustion compared to when subjects were dehydrated; also recorded: can enhance time to exhaustion
- QuickBoard Hit Δ, Interpretation ([3]; Dehydration vs High Dose): likely lower
- QuickBoard Hit Δ, Mean Difference ([3]; Dehydration vs High Dose): −2.6
- QuickBoard Hit Δ, Percent Negative ([3]; Dehydration vs High Dose): 90.99%
- QuickBoard Hit Δ, Percent Positive ([3]; Dehydration vs High Dose): 1.92%
- QuickBoard Hit Δ, Percent Trivial ([3]; Dehydration vs High Dose): 7.10%
- QuickBoard Hit Δ, Interpretation ([3]; Dehydration vs Low Dose): likely lower
- QuickBoard Hit Δ, Mean Difference ([3]; Dehydration vs Low Dose): −2.2
- QuickBoard Hit Δ, Percent Negative ([3]; Dehydration vs Low Dose): 88.90%
- QuickBoard Hit Δ, Percent Positive ([3]; Dehydration vs Low Dose): 1.93%
- QuickBoard Hit Δ, Percent Trivial ([3]; Dehydration vs Low Dose): 9.16%
- QuickBoard Hit Δ, Interpretation ([3]; Gatorade vs High Dose): Unclear
- QuickBoard Hit Δ, Mean Difference ([3]; Gatorade vs High Dose): −1.7
- QuickBoard Hit Δ, Percent Negative ([3]; Gatorade vs High Dose): 73.53%
- QuickBoard Hit Δ, Percent Positive ([3]; Gatorade vs High Dose): 9.72%
- QuickBoard Hit Δ, Percent Trivial ([3]; Gatorade vs High Dose): 16.75%
- QuickBoard Hit Δ, group mean ([3]; High Dose (1 g per 500 ml)): 1.17
- changes in lower body reaction (Quick Board) [3]: performance appeared to improve in LD and HD
- changes in lower body reaction (Quick Board) ([3]; listed as L-alanyl-L-glutamine): Performance appeared to improve
- QuickBoard Hit Δ, group mean ([3]; Low Dose (300 mg per 500 ml)): 0.75
- QuickBoard Hit Δ, Interpretation ([3]; Low Dose vs Gatorade): Unclear
- QuickBoard Hit Δ, Mean Difference ([3]; Low Dose vs Gatorade): 1.3
- QuickBoard Hit Δ, Percent Negative ([3]; Low Dose vs Gatorade): 17.75%
- QuickBoard Hit Δ, Percent Positive ([3]; Low Dose vs Gatorade): 63.09%
- QuickBoard Hit Δ, Percent Trivial ([3]; Low Dose vs Gatorade): 19.15%
- QuickBoard Hit Δ, Interpretation ([3]; Low Dose vs High Dose): trivial; also recorded: Possibly
- QuickBoard Hit Δ, Mean Difference ([3]; Low Dose vs High Dose): 0.42
- QuickBoard Hit Δ, Percent Negative ([3]; Low Dose vs High Dose): 29.69%
- QuickBoard Hit Δ, Percent Positive ([3]; Low Dose vs High Dose): 0.19%
- QuickBoard Hit Δ, Percent Trivial ([3]; Low Dose vs High Dose): 70.12%
